Patent US6340693B1, “Protective agent for nervous system structural cells” (Toray Industries, Inc., priority 1997, dated 2002)

Tests used:
Assay type in all cases: cell-based
Human glioma cells = experiment: Human glioma cell disorder due to peroxide (TBH)
Protocol: Human glioma cells were separated from a patient of glioma (person), and then subjected to subculture in a 10% FCS-D-MEM medium (a Dulbecco's MEM medium (Nissui) containing 10% fetal calf serum). The cells were dispersed into single cells by trypsin-EDTA treatment, and then a 10% FCS-D-MEM medium was added to recover the cells, followed by centrifugation at 1200 rpm for 5 minutes. After centrifugation, the cells were prepared to 1×10^6 cells/ml by a HEPES buffer (Hanks' solution (Nissui) containing 15 mM HEPES, pH 7.4), and beraprost sodium (0.1 to 30 μM) was added to the cell solution, followed by incubation at 37° C. for 30 minutes. Then, […] of TBH (tertiary butyl hydroperoxide, Funakoshi) as a peroxide was added to the cell solution, followed by further incubation at 37° C. for 30 minutes. After reaction was stopped under ice cooling, some of the cells are collected, and divided into living cells and dead cells by trypan blue staining, followed by counting to determine the survival rate of the cells. The residual cells were centrifuged at 2000 rpm for 5 minutes, and then the amount of thiobarbituric acid reaction substance (TBARS amount) was measured according to the known method (Ohkawa, H., Ohnishi, N. and Yagi, K. Anal. Biochem., 95, 351-358 (1979)) and considered as an index of peroxidation of cell membrane lipid. […]

[1] = system: nerve cells derived from a rat fetus (hippocampus); experiment: Survival of cultured isolated nerve cells (hippocampus); conditions: serum-free DF medium, 3 days culture, 10 μM beraprost sodium, student t-test vs control
From the text: (§1) Effect of improving survival rate of cultured isolated nerve cells:
(§2) The protective effect of beraprost sodium on nerve cells was examined by using nerve cells derived from a rat fetus. The cerebral cortex and hippocampus were obtained from the brain of a rat fetus of 17 days age, and isolated nerve cells were obtained therefrom by trypsin and pipetting treatment. The thus-obtained cells were inoculated into a 48-well culture plate coated with polylysine at a cell concentration of 5×10^3 cells/cm^2; followed by culture in a DF medium containing no serum at 37° C. for 3 days. After completion of culture, the cells were fixed by formalin, and the number of cells having axons was measured under a microscope. Beraprost sodium was added in an amount of each of 1, 10 and 100 μM during culture.
(§3) The results are shown in FIG. 1 (In the figure, * and ** represent student t-test results. *: p<0.05 vs control. **: p<0.01 vs control. This applies to the description below). The nerve cells gradually died and fell under the conditions in this example, beraprost sodium prevented falling of the nerve cells, and increased the number of survival cells depending upon the concentration.

[2] = system: nerve cells derived from a rat fetus (cerebral cortex); experiment: Survival of cultured isolated nerve cells (cerebral cortex); conditions: serum-free DF medium, 3 days culture, 1 and 10 μM beraprost sodium, student t-test vs control
From the text: as §1, §2, §3

beraprost sodium
decrease in the survival rate of cells by TBH treatment (trypan blue staining) (Human glioma cells; 0.1 μM or more of beraprost sodium, 30 min pre-incubation, then 800 μm TBH for 30 min at 37° C.): significantly (p<0.01) suppressed | TBARS amount as an index of peroxidation of cell membrane lipid (increase by TBH treatment) (Human glioma cells; beraprost sodium 0.1 to 30 μM, TBH-treated cells): did not affect such an increase | number of survival cells (cells having axons) [1]: increase was significant | number of survival cells (cells having axons) [2]: increase was significant
